Measurements: patent US20250154197A1, “LIPOLYTIC PEPTIDES” (FUNDACIÓ HOSPITAL UNIVERSITARI VALL D'HEBRON - INSTITUT DE …, priority 2021, published 2025)
Where no end group is shown, it is not given here. [ ]: non-standard residue; d: D form.

Columns and labels:
Format in all cases: cell-based
[1] = system: human subcutaneoous mature adipocytes; test: Lipolytic activity: glycerol release in human adipocytes (Lipolysis Assay kit); conditions: human subcutaneous mature adipocytes
[2] = system: differentiated human subcutaneous adipocytes; test: Time course lipolytic activity: glycerol release at 120' and 240'; conditions: for Lipolytic activity measured as glycerol release: 10 ug/ml, human subcutaneous adipocytes
Experimental: At the end of the experiment, supernatants were collected and glycerol content was measured using a Lipolysis Assay kit from Tebu-bio (LIP-1—NC) following the manufacturer's instructions.

3T3-L1 mouse adipocytes = test: Lipolytic activity: glycerol release in differentiated 3T3-L1 mouse adipocytes (12 h); conditions: for Lipolysis Activity measured as Glycerol (μM) release in media: 3T3-L1 mouse adipocytes, 12 h
Experimental: JCRB9014-A) from Tebu-Bio (Tebu-bio, Barcelona, Spain). Briefly, mouse adipocytes (3T3-L1 cells) were cultured in 48 well plates as described previously (Saez-Lopez et al., 2020). Adipocytes were differentiated using cell culture reagents purchased from Tebu-Bio and following the manufacturer's instructions. At day of differentiation cells were treated in duplicates with vehicle (DMSO), Caffeine (100 μg/ml), and each of the peptides at the specified doses in Table 6a below. At the end of the experiment (12 h), supernatants were collected and glycerol content was measured using a Glycerol Assay Kit (Sigma) following manufacturer's instructions.

Cn1c(=O)c2c(ncn2C)n(C)c1=O [Caffeine]
Lipolysis Activity measured as Glycerol (μM) release in media ([1]; 100 μg/ml): 35.53 µM | lipolytic activity at 120' ([2]; 120', 10 μg/ml): neither caffeine nor the comparative peptide, at the same dose, provided any significant activity at that time | Lipolytic activity measured as glycerol release ([2]; 120 min): −3.0856 UM | Lipolytic activity measured as glycerol release ([2]; 240 min): 17.1602 UM | Lipolysis Activity measured as Glycerol (μM) release in media (3T3-L1 mouse adipocytes; 100 μg/ml): 297 µM

DPEGVIY (H-[dD][dP][dE]G[dV][dI][dY]-OH; SMILES CC[C@@H](C)[C@@H](NC(=O)[C@H](NC(=O)CNC(=O)[C@@H](CCC(=O)O)NC(=O)[C@H]1CCCN1C(=O)[C@H](N)CC(=O)O)C(C)C)C(=O)N[C@H](Cc1ccc(O)cc1)C(=O)O) [GP3D-7 I II IX, N-term NH2, C-term COOH]
Lipolysis Activity measured as Glycerol (μM) release in media ([1]; 25 μg/ml): 19.68 µM | Lipolysis Activity measured as Glycerol (μM) release in media ([1]; 50 μg/ml): 34.01 µM | Lipolysis Activity measured as Glycerol (μM) release in media ([1]; 75 μg/ml): 46.62 µM | Lipolysis Activity measured as Glycerol (μM) release in media ([1]; 100 μg/ml): 56.08 µM | Lipolysis Activity measured as Glycerol (μM) release in media (3T3-L1 mouse adipocytes; 1 μg/ml): 417 µM | Lipolysis Activity measured as Glycerol (μM) release in media (3T3-L1 mouse adipocytes; 10 μg/ml): 380 µM | Lipolysis Activity measured as Glycerol (μM) release in media (3T3-L1 mouse adipocytes; 100 μg/ml): 346 µM

NDPEGLY (H-[dN][dD][dP][dE]G[dL][dY]-OH; SMILES CC(C)C[C@@H](NC(=O)CNC(=O)[C@@H](CCC(=O)O)NC(=O)[C@H]1CCCN1C(=O)[C@@H](CC(=O)O)NC(=O)[C@H](N)CC(N)=O)C(=O)N[C@H](Cc1ccc(O)cc1)C(=O)O) [GP3D-DM5, N-term NH2, C-term COOH]
Lipolysis Activity measured as Glycerol (μM) release in media ([1]; 25 μg/ml): 21.84 µM | Lipolysis Activity measured as Glycerol (μM) release in media ([1]; 50 μg/ml): 39.18 µM | Lipolysis Activity measured as Glycerol (μM) release in media ([1]; 75 μg/ml): 47.07 µM | Lipolysis Activity measured as Glycerol (μM) release in media ([1]; 100 μg/ml): 55.12 µM | Lipolysis Activity measured as Glycerol (μM) release in media (3T3-L1 mouse adipocytes; 100 μg/ml): 326 µM

NDPEGVIY (H-[dN][dD][dP][dE]G[dV][dI][dY]-OH; SMILES CC[C@@H](C)[C@@H](NC(=O)[C@H](NC(=O)CNC(=O)[C@@H](CCC(=O)O)NC(=O)[C@H]1CCCN1C(=O)[C@@H](CC(=O)O)NC(=O)[C@H](N)CC(N)=O)C(C)C)C(=O)N[C@H](Cc1ccc(O)cc1)C(=O)O) [GP3D-DM6, N-term NH2, C-term COOH]
Lipolysis Activity measured as Glycerol (μM) release in media ([1]; 25 μg/ml): 19.83 µM | Lipolysis Activity measured as Glycerol (μM) release in media ([1]; 50 μg/ml): 37.09 µM | Lipolysis Activity measured as Glycerol (μM) release in media ([1]; 75 μg/ml): 48.37 µM | Lipolysis Activity measured as Glycerol (μM) release in media ([1]; 100 μg/ml): 55.19 µM | Lipolysis Activity measured as Glycerol (μM) release in media (3T3-L1 mouse adipocytes; 1 μg/ml): 304 µM | Lipolysis Activity measured as Glycerol (μM) release in media (3T3-L1 mouse adipocytes; 100 μg/ml): 405 µM

TWDPEGVIFY [GP3D] ([dT][dW][dD][dP][dE]G[dV][dI][dF][dY]) [N-term NH2, C-term COOH]
Lipolytic activity measured as glycerol release ([2]; 120 min, listed as SEQ ID NO: 3): 24.8964 UM | Lipolytic activity measured as glycerol release ([2]; 240 min, listed as SEQ ID NO: 3): 90.1603 UM | fold more efficient in inducing lipolysis vs caffeine or SEQ ID NO:2 ([2]; time 120', 10 μg/ml): more than 24 fold | fold more efficient in inducing lipolysis vs caffeine or SEQ ID NO:2 ([2]; time 240', 10 μg/ml): more than 5 fold | Lipolysis Activity measured as Glycerol (μM) release in media (3T3-L1 mouse adipocytes; 1 μg/ml): 538 µM | Lipolysis Activity measured as Glycerol (μM) release in media (3T3-L1 mouse adipocytes; 10 μg/ml): 574 µM | Lipolysis Activity measured as Glycerol (μM) release in media (3T3-L1 mouse adipocytes; 100 μg/ml): 580 µM | increase in lipolytic activity compared to the L version (3T3-L1 mouse adipocytes; D-decapeptide vs L version (SEQ ID NO: 2)): about 2 fold

TWDPEGVIFY [GP3L, comparative L-decapeptide; N-term NH2, C-term COOH, reference compound]
Lipolytic activity measured as glycerol release ([2]; 120 min, listed as SEQ ID NO: 2): −0.5343 UM | Lipolytic activity measured as glycerol release ([2]; 240 min, listed as SEQ ID NO: 2): 17.7363 UM | Lipolysis Activity measured as Glycerol (μM) release in media (3T3-L1 mouse adipocytes; 1 μg/ml): 230 µM | Lipolysis Activity measured as Glycerol (μM) release in media (3T3-L1 mouse adipocytes; 10 μg/ml): 250 µM | Lipolysis Activity measured as Glycerol (μM) release in media (3T3-L1 mouse adipocytes; 100 μg/ml): 360 µM

WDPEGLY (H-[dW][dD][dP][dE]G[dL][dY]-OH; SMILES CC(C)C[C@@H](NC(=O)CNC(=O)[C@@H](CCC(=O)O)NC(=O)[C@H]1CCCN1C(=O)[C@@H](CC(=O)O)NC(=O)[C@H](N)Cc1c[nH]c2ccccc12)C(=O)N[C@H](Cc1ccc(O)cc1)C(=O)O) [GP3D-DM1, N-term NH2, C-term COOH]
Lipolysis Activity measured as Glycerol (μM) release in media ([1]; 25 μg/ml): 15.94 µM | Lipolysis Activity measured as Glycerol (μM) release in media ([1]; 50 μg/ml): 32.98 µM | Lipolysis Activity measured as Glycerol (μM) release in media ([1]; 75 μg/ml): 37.78 µM | Lipolysis Activity measured as Glycerol (μM) release in media ([1]; 100 μg/ml): 40.28 µM | Lipolysis Activity measured as Glycerol (μM) release in media (3T3-L1 mouse adipocytes; 1 μg/ml): 356 µM | Lipolysis Activity measured as Glycerol (μM) release in media (3T3-L1 mouse adipocytes; 10 μg/ml): 477 µM | Lipolysis Activity measured as Glycerol (μM) release in media (3T3-L1 mouse adipocytes; 100 μg/ml): 324 µM

WDPEGV (H-[dW][dD][dP][dE]G[dV]-OH; SMILES CC(C)[C@@H](NC(=O)CNC(=O)[C@@H](CCC(=O)O)NC(=O)[C@H]1CCCN1C(=O)[C@@H](CC(=O)O)NC(=O)[C@H](N)Cc1c[nH]c2ccccc12)C(=O)O) [GP3D-6 I VIII IX X, N-term NH2, C-term COOH]
Lipolysis Activity measured as Glycerol (μM) release in media ([1]; 25 μg/ml): 18.07 µM | Lipolysis Activity measured as Glycerol (μM) release in media ([1]; 50 μg/ml): 32.53 µM | Lipolysis Activity measured as Glycerol (μM) release in media ([1]; 75 μg/ml): 47.82 µM | Lipolysis Activity measured as Glycerol (μM) release in media ([1]; 100 μg/ml): 51.90 µM | Lipolysis Activity measured as Glycerol (μM) release in media (3T3-L1 mouse adipocytes; 100 μg/ml): 360 µM
